Reference: ChEMBL document CHEMBL1135450, “Discovery of phenyl alanine derived ketoamides carrying benzoyl residues as novel calpain inhibitors” (Bioorg Med Chem Lett, 2002)
Where a SMILES comes first, the peptide text is derived from it. [ ]: non-standard residue; d: D form. The star is where a group is joined. ξ: configuration not given here. ξF = NC(Cc1ccccc1)C(=O)O; Cbz = O=C(OCc1ccccc1)*

What was measured:
[1] = target: T1, Calpain-1 catalytic subunit (Homo sapiens, UniProt P07384); assay: Inhibition of calpain, using human mu-calpain isolated from erythrocytes and Suc-Leu-Tyr-AMC as the fluorogenic substrate; assay type: cell-free
T1 sequence (P07384 whole entry): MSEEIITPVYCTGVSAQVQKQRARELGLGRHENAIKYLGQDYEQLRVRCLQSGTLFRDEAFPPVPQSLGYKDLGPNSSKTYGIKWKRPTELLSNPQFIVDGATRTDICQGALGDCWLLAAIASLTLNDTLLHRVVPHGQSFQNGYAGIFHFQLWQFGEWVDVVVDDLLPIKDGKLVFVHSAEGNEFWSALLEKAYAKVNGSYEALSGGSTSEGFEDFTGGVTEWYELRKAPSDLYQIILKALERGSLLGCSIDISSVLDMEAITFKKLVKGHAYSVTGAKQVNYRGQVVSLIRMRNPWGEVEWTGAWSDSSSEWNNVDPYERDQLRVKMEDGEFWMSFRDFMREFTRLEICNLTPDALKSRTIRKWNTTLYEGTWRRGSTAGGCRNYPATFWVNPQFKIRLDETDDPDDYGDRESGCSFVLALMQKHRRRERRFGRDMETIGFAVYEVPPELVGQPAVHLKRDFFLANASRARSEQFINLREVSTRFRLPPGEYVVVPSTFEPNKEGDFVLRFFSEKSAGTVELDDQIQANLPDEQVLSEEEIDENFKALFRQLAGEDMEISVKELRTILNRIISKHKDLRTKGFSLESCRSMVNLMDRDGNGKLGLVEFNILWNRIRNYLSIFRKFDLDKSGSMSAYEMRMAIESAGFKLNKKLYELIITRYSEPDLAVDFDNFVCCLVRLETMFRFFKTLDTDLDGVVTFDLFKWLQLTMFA

Cathepsin B = Cathepsin B (Homo sapiens, UniProt P07858); assay: Inhibition of cathepsin B
Procathepsin L = Procathepsin L (Homo sapiens, UniProt P07711); assay: The compound was evaluated for inhibition of cathepsin L
Procathepsin L, sequence (P07711 whole entry): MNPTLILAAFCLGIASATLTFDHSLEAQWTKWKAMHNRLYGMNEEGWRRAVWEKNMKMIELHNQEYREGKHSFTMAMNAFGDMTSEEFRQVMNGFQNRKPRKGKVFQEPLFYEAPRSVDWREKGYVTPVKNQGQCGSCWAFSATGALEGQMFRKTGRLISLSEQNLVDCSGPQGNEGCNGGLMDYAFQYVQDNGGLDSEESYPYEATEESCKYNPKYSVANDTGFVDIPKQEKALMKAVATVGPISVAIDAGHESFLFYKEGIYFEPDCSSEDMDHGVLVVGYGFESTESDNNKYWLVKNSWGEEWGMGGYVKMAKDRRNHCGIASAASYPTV

[2] = Inhibition of calpain-mediated p60 c-Src degradation in human thrombocytes; assay type: functional, cell-based

Ki [1]	SMILES	also measured
370 nM	O=CC(Cc1ccccc1)NC(=O)c1ccccc1Cc1ccccc1 (stereo not given)	–
280 nM	O=CC(Cc1ccccc1)NC(=O)c1ccccc1CCc1ccccc1 (stereo not given)	–
450 nM	O=CC(Cc1ccccc1)NC(=O)c1ccccc1COc1ccccc1 (stereo not given)	–
50 nM	O=CC(Cc1ccccc1)NC(=O)c1ccccc1Oc1ccccc1 (stereo not given)	–
90 nM	O=CC(Cc1ccccc1)NC(=O)c1ccccc1-c1ccccc1 (stereo not given)	–
230 nM	O=CC(Cc1ccccc1)NC(=O)c1ccccc1C(=O)c1ccccc1 (stereo not given)	–

Continued, molecule first:

SMILES	Ki [1]	also measured
O=CC(Cc1ccccc1)NC(=O)c1ccccc1/C=C/c1ccccc1 (stereo not given)	140 nM	–
O=CC(Cc1ccccc1)NC(=O)c1ccccc1OCc1ccc2ccccc2c1 (stereo not given)	50 nM	–
O=CC(Cc1ccccc1)NC(=O)c1ccccc1C#Cc1ccccc1 (stereo not given)	450 nM	–
NC(=O)C(=O)C(Cc1ccccc1)NC(=O)c1ccccc1/C=C/c1ccc2ccccc2c1 (stereo not given)	6 nM	Ki (Cathepsin B): 99 nM; Ki (Procathepsin L): 6100 nM; IC50 [2]: 1400 nM
O=CC(Cc1ccccc1)NC(=O)c1ccccc1/C=C/c1ccc2ccccc2c1 (stereo not given)	15 nM	–
O=CC(Cc1ccccc1)NC(=O)c1ccccc1Cc1ccc2ccccc2c1 (stereo not given)	200 nM	–
O=CC(Cc1ccccc1)NC(=O)c1ccccc1 (stereo not given)	1080 nM	–
COc1ccc(/C=C/c2ccccc2C(=O)NC(C=O)Cc2ccccc2)cc1OC (stereo not given)	40 nM	–
NC(=O)C(=O)C(Cc1ccccc1)NC(=O)c1ccccc1-c1ccccc1 (stereo not given)	40 nM	–
COc1ccc(/C=C/c2ccccc2C(=O)NC(Cc2ccccc2)C(=O)C(N)=O)cc1OC (stereo not given)	80 nM	–
CC(C)[C@H](NC(=O)OCc1ccccc1)C(=O)NC(C=O)Cc1ccccc1 (stereo partly drawn) (Cbz-Val-[ξF]-aldehyde)	–	IC50 [2]: 700 nM
